System: gene expression in etiolated eto1-4 seedlings
Test: Transcriptional profiling (ATH1 GeneChip microarray) of etiolated eto1-4 seedlings
Type: in vivo, Arabidopsis thaliana
Conditions: ratio eto1-4 treated to eto1-4 (no treatment)
Experimental: For chemical treatments, seeds were sown on 0.5×MS agar medium supplemented with 10 μM chemicals (AVG, compounds 9393, 9370, and 7303) or DMSO (as control). Arabidopsis seeds were stratified in the dark at 4° C. for 4 days, then germinated in the dark for 3 days at 22° C. Approximately 2,000 etiolated seedlings of the wild type or eto1-4 were used to collect tissues for preparation of total RNA in each microarray experiment with Arabidopsis ATH1 GeneChip (Affymetrix). Extraction of RNA followed an established protocol (Chang, et al. (1993) Plant Mol. Biol. Rep. 11, 113-117). Total RNA (10 μg) was used to prepare biotinylated cRNA for hybridization to ATH1 GeneChip in the experiments disclosed herein. Experiments were repeated by 2 independent biological duplicates, and candidate genes present in both experiments were selected for further analysis. The MASS method was used for data analysis and normalization by all sample medium. Candidate genes were selected by the following criteria. First, genes with 1.5-fold differential expression between the wild type and eto1-4 were selected as the master gene pool, which was then used for comparison in treatments with AVG and individual exemplary compounds. Data were presented in hierarchical clustering and Venn diagram format. Agilent GeneSpring GX and Bioconductor software were used to analyze the expression profile data. Gene Ontology descriptions were generated by GeneSpring GX and further referred to the TAR GO database. Raw data are available in the GEO database (http://www.ncbi.nlm.nih.gov/geo) with Accession no. GSE20897.
The filtered and normalized expression data set from 22810 probes on the ATH1 Genechip was used for hierarchical clustering of gene expression profiles for comparison between AVG and the exemplary invention compounds in eto1-4. It was identified that 1,446 genes show at least 1.5-fold difference in expression between the WT and eto1-4 and used them as the master gene pool for clustering analysis (FIG. 7A). […] These genes likely contribute to the etiolated phenotype of eto1-4 by responding to elevated endogenous ethylene. To determine whether the exemplary compounds have specific r overlapping functions with AVG to suppress the eto1-4 phenotype, genes that are regulated by individual exemplary invention compounds and AVG for Venn diagram analysis were clustered (FIG. 7B). More than 63% of genes (356/561 for compound 9393; 389/561 for compound 9370; 399/561 for compound 7303; FIG. 7B) with expression associated with AVG were co-regulated by the exemplary invention compounds, which indicates an overlap function in suppression of the ethylene phenotype in eto1-4. […] Next genes co-regulated by all of the exemplary invention compounds and AVG were examined by performing a clustering analysis using the co-regulated genes identified in FIG. 7B: 356 (compound 9393 vs AVG), 389 (compound 9370 vs AVG) and 399 genes (compound 7303 vs AVG). It was uncovered that 276 genes were co-regulated by all of the exemplary invention compounds and AVG (FIG. 7C and Table 2). On the basis of GO descriptions generated by Gene Spring GX and TAIR database, the 276 genes were divided into subgroups related to their biological functions (Table 2). […] In addition, stress- and pathogenesis-related genes were among the co-regulated genes, possibly because ethylene is involved in both biotic and abiotic stresses.
Genes (1446 non-redundant loci) were selected by 1.5-fold differential expression between eto1-4 and WT as the master pool for analysis. These genes were used for comparison between chemical treatments by AVG and the exemplary invention compounds. The finalized 276 genes that are co-regulated by AVG and all of the exemplary invention compounds are shown. Locus ID also present in Nemhauser et al. (Nemhauser, et al. (2006) Cell 126, 467-475).

Cc1ccc(C2CC(=O)c3cnc(NC4CCCC4)nc3C2)cc1 (centres unmarked) [Compound 9370]
Signal Fold Change AT3G14850, unknown biological function: 0.20 | Signal Fold Change AT3G15890 protein kinase: 1.86 | Signal Fold Change AT3G16450 jacalin lectin protein: 2.54 | Signal Fold Change AT3G16470 jacalin lectin protein: 5.60 | Signal Fold Change AT3G16690, unknown biological function: 3.80 | Signal Fold Change AT3G17680, unknown biological function: 0.24 | Signal Fold Change AT3G20130 cytochrome P450: 1.73 | Signal Fold Change AT3G21770 peroxidase 30: 2.01 | Signal Fold Change AT3G22620 lipid transfer protein: 2.14 | Signal Fold Change AT3G23150 ethylene receptor, putative (ETR2): 0.16 | Signal Fold Change AT3G23800, unknown biological function: 0.40 | Signal Fold Change AT3G24670, unknown biological function: 0.32 | Signal Fold Change AT3G25710 bHLH protein: 2.47 | Signal Fold Change AT3G25730 AP2-containing transcription factor: 0.30 | Signal Fold Change AT3G25980 mitotic spindle checkpoint protein: 2.23 | Signal Fold Change AT3G27580 protein kinase: 0.56 | Signal Fold Change AT3G28290, unknown biological function: 0.18 | Signal Fold Change AT3G29250 short-chain dehydrogenase: 5.52 | Signal Fold Change AT3G30775 proline oxidase, mitochondrial: 3.13 | Signal Fold Change AT3G43270 pectinesterase protein: 0.20 | Signal Fold Change AT3G44820, response to light stimulus, phototropic-responsive NPH3 protein: 2.56 | Signal Fold Change AT3G44990 endo-xyloglucan transferase: 0.22 | Signal Fold Change AT3G45710 proton-dependent oligopeptide transport (POT) protein: 2.40 | Signal Fold Change AT3G46130 myb transcription factor (MYB48): 2.15 | Signal Fold Change AT3G46700 UDP-glucosyl transferase: 5.15 | Signal Fold Change AT3G47210, unknown biological function: 2.73 | Signal Fold Change AT3G47250, unknown biological function: 4.89 | Signal Fold Change AT3G49780 phytosulfokines 3 (PSK3): 7.46 | Signal Fold Change AT3G50660 steroid 22-alpha-hydroxylase: 4.00 | Signal Fold Change AT3G51410, unknown biological function: 0.32 | Signal Fold Change AT3G51970, unknown biological function: 2.88 | Signal Fold Change AT3G52180 protein tyrosine phosphatase: 0.25 | Signal Fold Change AT3G52920 expressed protein (defense response): 2.82 | Signal Fold Change AT3G53540, unknown biological function: 0.35 | Signal Fold Change AT3G56480, unknown biological function: 2.39 | Signal Fold Change AT3G58710 WRKY transcription factor: 2.65 | Signal Fold Change AT3G59370, unknown biological function: 2.99 | Signal Fold Change AT3G59710 short-chain dehydrogenase: 0.38 | Signal Fold Change AT3G59900, unknown biological function: 0.39 | Signal Fold Change AT3G60520, unknown biological function: 0.28 | Signal Fold Change AT3G61160 shaggy-related protein kinase beta/ASK-beta (ASK2): 3.86 | Signal Fold Change AT4G00730 anthocyaninless2: 0.54 | Signal Fold Change AT4G01410, unknown biological function: 0.27 | Signal Fold Change AT4G03140 short-chain dehydrogenase: 0.38 | Signal Fold Change AT4G08300, unknown biological function: 3.20 | Signal Fold Change AT4G09570 calcium-dependent protein kinase: 0.35 | Signal Fold Change AT4G10910, unknown biological function: 4.65 | Signal Fold Change AT4G11190 disease resistance-responsive protein: 9.98 | Signal Fold Change AT4G11280 ACC synthase 6: 2.29 | Signal Fold Change AT4G11310 cysteine proteinase: 9.04 | Signal Fold Change AT4G12080, unknown biological function: 2.05 | Signal Fold Change AT4G12410 auxin-responsive protein: 2.89 | Signal Fold Change AT4G12480 lipid transfer protein: 0.17 | Signal Fold Change AT4G13210, unknown biological function: 0.25 | Signal Fold Change AT4G15550 UDP-glucose:indole-3-acetate beta-D-glucosyltransferase: 0.28 | Signal Fold Change AT4G15920, unknown biological function: 17.08 | Signal Fold Change AT4G17220 expressed protein (cytoskeleton organization and biogenesis): 2.35 | Signal Fold Change AT4G18340 glycosyl hydrolase: 2.70 | Signal Fold Change AT4G23410 senescence-associated protein: 2.34 | Signal Fold Change AT4G25780, unknown biological function: 11.52 | Signal Fold Change AT4G26010 peroxidase: 0.38 | Signal Fold Change AT4G28085, unknown biological function: 4.84 | Signal Fold Change AT4G31000, unknown biological function: 0.61 | Signal Fold Change AT4G32920, unknown biological function: 2.35 | Signal Fold Change AT4G34560, unknown biological function: 1.85 | Signal Fold Change AT4G34760 auxin-responsive protein: 0.15 | Signal Fold Change AT4G35060 copper chaperone: 3.80 | Signal Fold Change AT4G35150, unknown biological function: 0.28 | Signal Fold Change AT4G36520, unknown biological function: 2.70 | Signal Fold Change AT4G37220 stress-responsive protein: 6.12 | Signal Fold Change AT4G38690, signal transduction, 1-phosphatidylinositol: 3.04 | Signal Fold Change AT4G39210 ADP-glucose pyrophosphorylase: 0.28 | Signal Fold Change AT4G39800 inositol-3-phosphate synthase isozyme 1: 2.08 | Signal Fold Change AT4G39840, unknown biological function: 0.29 | Signal Fold Change AT5G01210, unknown biological function: 0.31 | Signal Fold Change AT5G01300, unknown biological function: 1.40 | Signal Fold Change AT5G02260, cell wall organization and biogenesis, expansin (EXP9): 0.10 | Signal Fold Change AT5G02540 short-chain dehydrogenase: 0.12 | Signal Fold Change AT5G03160 DNAJ heat shock N-terminal domain-containing protein: 2.78 | Signal Fold Change AT5G04080, unknown biological function: 2.55 | Signal Fold Change AT5G05180, unknown biological function: 1.95 | Signal Fold Change AT5G06200, unknown biological function: 2.10 | Signal Fold Change AT5G08240, unknown biological function: 2.31 | Signal Fold Change AT5G08260 serine carboxypeptidase S10 protein: 0.38 | Signal Fold Change AT5G08370 alpha-galactosidase: 4.06 | Signal Fold Change AT5G09980 expressed protein (defense response): 0.38 | Signal Fold Change AT5G10720 sensory transduction histidine kinase: 0.32 | Signal Fold Change AT5G11540, unknown biological function: 5.68 | Signal Fold Change AT5G12170, response to cadmium ion, expressed protein: 0.34 | Signal Fold Change AT5G13870 endo-xyloglucan transferase: 0.11 | Signal Fold Change AT5G13910 AP2/EREBP-like transcription factor: 0.39 | Signal Fold Change AT5G14780 formate dehydrogenase: 0.35 | Signal Fold Change AT5G14920 gibberellin-regulated protein: 0.31 | Signal Fold Change AT5G15290, unknown biological function: 2.42 | Signal Fold Change AT5G15530 biotin carboxyl carrier protein 2: 0.38 | Signal Fold Change AT5G15830 bZIP transcription factor protein: 4.18 | Signal Fold Change AT5G18470, unknown biological function: 0.18 | Signal Fold Change AT5G18670 beta-amylase: 0.40 | Signal Fold Change AT5G18860, unknown biological function: 2.08 | Signal Fold Change AT5G18970, unknown biological function: 3.58 | Signal Fold Change AT5G19890 peroxidase: 0.08 | Signal Fold Change AT5G19930, unknown biological function: 1.64 | Signal Fold Change AT5G20410 monogalactosyldiacylglycerol synthase: 3.75 | Signal Fold Change AT5G22310, unknown biological function: 0.31 | Signal Fold Change AT5G22860 serine carboxypeptidase S28 protein: 3.54 | Signal Fold Change AT5G23750, unknown biological function: 4.16 | Signal Fold Change AT5G24870, unknown biological function: 2.17 | Signal Fold Change AT5G25140 cytochrome P450: 5.04 | Signal Fold Change AT5G25160 zinc finger (C2H2 type) protein: 3.03 | Signal Fold Change AT5G25190 ethylene-responsive element-binding protein: 0.40 | Signal Fold Change AT5G34940, unknown biological function: 0.46 | Signal Fold Change AT5G37300, unknown biological function: 3.03 | Signal Fold Change AT5G38930, unknown biological function: 0.24 | Signal Fold Change AT5G39860 bHLH protein: 3.46 | Signal Fold Change AT5G41900 hydrolase: 3.08 | Signal Fold Change AT5G44410, unknown biological function: 3.27 | Signal Fold Change AT5G44580, unknown biological function: 0.21 | Signal Fold Change AT5G46890 lipid transfer protein: 3.94 | Signal Fold Change AT5G47240, unknown biological function: 4.32 | Signal Fold Change AT5G47330 palmitoyl protein thioesterase protein: 3.02 | Signal Fold Change AT5G47450 major intrinsic protein: 2.71 | Signal Fold Change AT5G47950, unknown biological function: 2.55 | Signal Fold Change AT5G48490 lipid transfer protein: 12.97 | Signal Fold Change AT5G48900, unknown biological function: 0.48 | Signal Fold Change AT5G49900, unknown biological function: 2.96 | Signal Fold Change AT5G50720 ABA-responsive protein (HVA22e): 2.65 | Signal Fold Change AT5G52120 SKP1 interacting partner 3 protein: 7.26 | Signal Fold Change AT5G53190, unknown biological function: 6.92 | Signal Fold Change AT5G53830, unknown biological function: 0.39 | Signal Fold Change AT5G56320, cell wall organization and biogenesis, expansin (EXP14): 2.90 | Signal Fold Change AT5G58660, unknown biological function: 0.27 | Signal Fold Change AT5G59540 oxidoreductase: 0.40 | Signal Fold Change AT5G63450 cytochrome P450: 8.71 | Signal Fold Change AT5G63650 serine/threonine protein kinase: 0.33 | Signal Fold Change AT5G65970 seven transmembrane MLO protein: 2.88 | Signal Fold Change AT5G66310, microtubule-based movement, kinesin motor protein: 0.45 | Signal Fold Change AT5G66400 dehydrin (RAB18): 0.81 | Signal Fold Change AT5G66440, unknown biological function: 0.31 | Signal Fold Change AT5G66460 (1-4)-beta-mannan endohydrolase: 0.42 | Signal Fold Change AT5G66780, unknown biological function: 0.86

Source: patent US8481459B2, “Chemical inhibitors of ethylene biosynthesis” (Academia Sinica, priority 2010, dated 2013)
